{"source": "paper PMC4007162", "about": "(Journal of molecular endocrinology, 2011)", "molecular_target": "T1, ERα (Homo sapiens, UniProt P03372)", "T1 sequence (P03372 1-595)": "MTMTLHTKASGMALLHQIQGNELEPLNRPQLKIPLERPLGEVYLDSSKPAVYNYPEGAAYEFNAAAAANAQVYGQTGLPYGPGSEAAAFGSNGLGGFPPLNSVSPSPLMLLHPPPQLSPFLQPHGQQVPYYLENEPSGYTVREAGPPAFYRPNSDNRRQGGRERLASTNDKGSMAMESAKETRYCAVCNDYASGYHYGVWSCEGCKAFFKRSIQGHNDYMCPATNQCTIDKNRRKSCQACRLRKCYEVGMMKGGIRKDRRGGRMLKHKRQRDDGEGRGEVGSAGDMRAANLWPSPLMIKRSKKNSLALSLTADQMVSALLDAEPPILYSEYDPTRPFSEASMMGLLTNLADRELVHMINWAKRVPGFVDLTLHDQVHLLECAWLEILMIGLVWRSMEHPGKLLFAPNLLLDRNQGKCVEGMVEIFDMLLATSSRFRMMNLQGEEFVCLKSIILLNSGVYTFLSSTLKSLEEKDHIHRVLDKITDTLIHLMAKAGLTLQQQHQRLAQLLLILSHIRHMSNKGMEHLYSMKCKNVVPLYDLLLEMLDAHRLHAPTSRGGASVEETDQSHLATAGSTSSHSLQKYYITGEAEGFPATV", "test": "fluorescence polarization competition with ES2 tracer, recombinant ER", "type": "binding"}
{"molecule": "Oc1ccc(Nc2nc(-c3ccc(Cl)cc3)cs2)cc1", "note": "[SKI-II, 4-[4-(4-chloro-phenyl)-thiazol-2-ylamino]-phenol]", "values": [{"measurement": "IC50", "value": 85.8, "unit": "nM"}]}
